Assays:
PrfA = PrfA activation in L. monocytogenes strains expressing TagRFP from the actA promoter, grown in media with or without reducing agents; assay type: cell-based, Listeria monocytogenes; settings: for activation of PrfA in vitro: L. monocytogenes grown in chemically defined media, excess of exogenously added reducing agent; for Optimal concentration for prfA activation: reducing agent added to chemically defined media (Table 1); for induction of ActA (FIG. 1): chemically defined media, fluorescent reporter driven by actA promoter
Description: Experiments were conducted to identify any additional factors required for PrfA activation.
Three different strains were employed: WT 10403S (Lauer et al., J. Bacteriol. (2002) 184:4177-4186; ΔprfA which was an in frame deletion in prfA made by allelic exchange; and PrfA* which has a G145S mutation. The strains were engineered to express TagRFP from the actA promoter (e.g., as reported in Waite et al., PLoS Pathog. (2011)7:e1001326. A chemically defined media detailed in Table 1 was prepared.
Next, a number of reducing agents listed in Table 2 were added to the media.
The three strains were grown in the chemically defined media with or without the addition of the noted reducing agents.

Listeria monocytogenes = test: Virulence of strains grown with or without reducing agent: bacterial burdens in organs of intravenously infected mice; assay type: in vivo, CD-1 mice
Description: FIG. 2. In this experiment bacteria were grown in rich media (BHI) or Listeria synthetic media (LSM) with or without reducing agent (TCEP) and injected into mice IV. The data are CFUs at […] in liver and spleens. WT bacteria and a PrfA* strain that has constitutively active PrfA were used.
Prior to infection, bacterial strains were grown to stationary phase overnight in Listeria Synthetic Media (LSM) at 37° C., then diluted into either BHI or LSM, with or without reducing agent (2 mM TCEP) and grown at 37° C. with shaking until the OD600 was approximately 0.5. Cultures were re-suspended in 1× phosphate-buffered saline (PBS) and used to intravenously infect female CD-1 mice between 6 and 8 weeks of age with a final inoculum of 10^5 bacteria. At 48 hrs post-infection, mice were sacrificed and organs collected. Bacterial burdens were enumerated by plating organ homogenates on LB plates and incubating overnight.
WT bacteria and a PrfA* strain that has constitutively active PrfA were used.

Compound | activation of PrfA in vitro (PrfA) | Optimal concentration for prfA activation (PrfA) [mM] | induction of ActA (FIG. 1) (PrfA) | PrfA activation (PrfA; exogenous glutathione, standard complex broth culture) | bacteria in the organs (CFU, liver and spleen), fold more (Listeria monocytogenes; bacteria grown in LSM plus 2 mM TCEP, IV, 10^5 bacteria, 48 hrs post-infection) | activation of PrfA-dependent expression, measured by virulence (Listeria monocytogenes; defined medium and TCEP, compared with PrfA* strain)
O[C@H](CS)[C@H](O)CS (racemic) [dithiothreitol (DTT), dithiothreitol] | recapitulated | 2 |  |  |  | 
OCCS [2-mercaptoethanol (BME), 2-mercaptoethanol] | recapitulated | 2 |  |  |  | 
N[C@@H](CCC(=O)N[C@@H](CS)C(=O)NCC(=O)O)C(=O)O [Glutathione (reduced), Glutathione] | sufficient to stimulate activation of PrfA | 10 | induction of ActA | insufficient to stimulate PrfA activation |  | 
N[C@@H](CS)C(=O)O [L-Cysteine] |  | 10 | induction of ActA |  |  | 
O=C(O)CCP(CCC(=O)O)CCC(=O)O [tris(2-carboxyethyl)phosphine (TCEP), tris(2-carboxyethyl)phosphine] | recapitulated | 2 | induction of ActA |  | around 50 fold | equivalent to that of a PrfA-constituitive mutant
